This is an account of results in patent publication US9386938B2, “Methods for collagen imaging” (Collagen Medical, LLC, priority 2005, dated 2016).

Several values for one entry are separate records, joined by “and”; a condition that tells them apart may be missing. Equal entries are not always repeated. Where two headings read alike, the source gives them in different places. Bridge positions count the residues as written; N and C are the ends. Ends that are not written are not given here. Glu‑DTPA‑Gd = N-terminal Glu-DTPA-Gd chelate (gadolinium DTPA complex on glutamic acid)

The test system of one data set is infarcted myocardium. The data set can be described thus: Myocardial infarction MR imaging in mouse, 7 days post MI. To be noted: 25 μmol/kg i.v. bolus. It is filed as in vivo, C57BL/6 mouse.
Another data set deals with myocardium. The experiment in a line: Myocardial MR imaging in mouse. To be noted: 25 μmol/kg i.v. bolus, 4.7-T. It is filed as in vivo, C57BL/6 mouse.
Data set [1] is described as follows: Heart uptake in mice, gadolinium by ICP-MS. As to conditions: mouse, mesentery vein injection.
Protocol: Male BALB/c mice were anesthetized with pentobarbital (80 mg/kg ip). Following deep anesthesia, a longitudinal incision was made above the base of the abdomen up to just below the sternum. Internal organs were carefully moved out of the body cavity to the left, exposing the mesentery vein. […] The animals were sacrificed at 1, 5, 15, or minutes post-injection. The heart and lungs were immediately removed and rinsed in saline, separated from each other and rinsed with saline again. Both were removed and carefully dried before being prepared for analysis. Organs were digested with nitric acid and gadolinium content determined by ICP-MS.
Data set [2] is described as follows: In vivo heart uptake of collagen binding agent and non-binding analog. As to conditions: mouse, 10 μmol/kg tail vein, 15 minutes post-injection, N=4.
Data set [3] is described as follows: Biodistribution analysis in rats (heart and blood radioactivity). To be noted: rat.
Protocol: (§2) At either one or five minutes post injection the animals were sacrificed and the blood and heart collected. The heart was rinsed in a saline and blotted dry before analysis. […] An aliquot of the injection solution was also weighed and counted. Concentration estimates were decay corrected. Studies were performed at least in duplicate.
Data set [4] has as its system perfused Langendorff rat heart. The experiment in a line: Washout kinetics from perfused Langendorff rat heart. As to conditions: perfusion with buffer for 10 minutes. On the procedure:
(§1) After deep anesthesia with pentobarbital (80 mg/kg ip), the chest cavity of a male Sprague Dawley rat (300 g) was opened, retracted and the heart was removed immediately and placed in an ice-cold normal Krebs-Henseleit (K-H) solution (NaCl, 118 mM; KCl, 4.7 mM; CaCl2, 2.5 mM; MgSO4, 1.2 mM; KH2PO4, 1.2 mM; NaHCO3, 25 mM; glucose, 5.5 mM). A K-H buffer filled 20 Gauge needle was inserted into the apex of the heart penetrating into the bottom of the chamber. This was attached to a pressure transducer used to record and monitor heart function. Perfusion pressure (˜60 mmHg) was monitored using a second transducer. The heart was perfused at a constant flow rate of 10-12 mL/min with 37° C. Krebs-Henseleit buffer saturated with a mixture of 95% O2 and 5% CO2 gas. The heart was paced at 300 beats/min.
A Langendorff rat heart preparation was perfused with K-H buffer at a rate of 10-12 mL/min. A one mL solution containing SEQ ID NO: 144 (300 μM), radiolabeled (I-125) SEQ ID NO: 144 (1-6 μCi), GdDTPA (300 μM), and radiolabeled (Tc-99m) DTPA (5-8 μCi) was infused into the heart at a rate of 1 mL/min. After the infusion was finished, the heart was either removed or perfusion was allowed to continue for an additional 10 minutes and then the heart was removed. The perfusion buffer was not recirculated through the heart. After removal of any connective tissue, the heart was opened, fluid in the chambers drained, and the interior blotted dry with filter paper. The heart was then weighed and the radioactivity in the heart measured with a Packard Cobra 5003 Gamma Scintillation counter. […] An aliquot of the K-H buffer was also weighed and counted. Concentration estimates were decay corrected. Studies were performed at least in duplicate.
A Langendorff rat heart preparation was perfused with K-H buffer at a rate of 10-12 mL/min. […] The heart was then weighed and the radioactivity in the heart measured with a Packard Cobra 5003 Gamma Scintillation counter. […] An aliquot of the K-H buffer was also weighed and counted. […]

The next data set concerns the target T1, rat type I collagen (Rattus norvegicus, UniProt P02454+P02466).
T1 construct: Rat collagen (acid soluble, type I, rat tail); purchased Upstate USA, Inc 08-115; host or cells: rat tail (tissue extract)
The experiment in a line: MR phantom imaging at 4.7 T of rat collagen gel samples. As to conditions: samples 4 and 8 (centrifuged). On the procedure:
Samples: • 1. […] Sample prepared as sample 2, but centrifuged to separate insoluble rat collagen gel • 5. Sample prepared as sample 3, but centrifuged to separate insoluble human collagen gel • 6. 27 μM GdDTPA solution in PBS, pH 7.4 • 7. 27 μM GdDTPA in a solution of 5.0 μM rat type I collagen in 10 mM phosphate buffer, pH 5 incubated at 37° C. overnight to form a gel • 8. Sample prepared as in sample 7, but centrifuged to separate insoluble rat collagen gel • 9. Homogeneous gel of 5 μM rat collagen • 10. Homogeneous gel of 7.5 μM human collagen
Samples for imaging were placed in glass tubes that were in turn placed in tubes containing water. Images were acquired at 4.7 T on a Bruker Biospec Imager using a Multi-Slice Multi-Echo Method with variable Relaxation Delay (MSMEVTR) experiment. The spin echo time and the relaxation delay were set to TE=11.2 ms and TR=500 ms, respectively with a flip angle of 30°. Images were acquired of sample 2, sample 4, sample 7, and sample 8. […] Sample 7 and 8 show uniform signal intensity.

In data set [5] the test system is perfused Langendorff rat heart. The data set can be described thus: Equilibrium binding to perfused Langendorff rat heart. To be noted: 10 minutes. On the procedure: as §1
Two peptide test articles, a high collagen binding peptide (SEQ ID NO: 144) and a low collagen binding peptide (SEQ ID NO: 173), are compared to GdDTPA. The appropriate test article was added to the K-H buffer solution to a total concentration of either 3 or 30 μM. Also added to the K-H buffer was a radiotracer analog of each peptide or GdDTPA. For the peptides, the radiotracer was an aliquot of the appropriate 1-125 labeled peptide derivative (see Example 5 for protocol). For GdDTPA, the tracer added was Tc-99m labeled DTPA. The amount of radioactivity added to the buffer solution was 1-5 μCi.
The heart was perfused for a period of 10 minutes and the perfusion solution was recycled through the heart. The total volume of K-H buffer used was 50-60 mL. After 10 min, the heart was removed from the apparatus and any connective tissue was removed. The heart was opened, fluid in the chambers drained, and the interior blotted dry with filter paper. The heart was then weighed and the radioactivity in the heart measured with a Packard Cobra 5003 Gamma Scintillation counter. An aliquot of the K-H buffer was also weighed and counted. Studies were performed at least in duplicate.
The dual peptide gadolinium tetramer (Compound ID 803) was compared to GdDTPA. Compound ID 803 and GdDTPA were added to the K-H buffer solution to a total concentration of 3 μM. Also added to the K-H buffer was a radiotracer analog of Compound ID 803 or GdDTPA. For Compound ID 803, the radiotracer was an aliquot of the In-111 labeled compound. For GdDTPA, the tracer added was Tc-99m labeled DTPA. The amount of radioactivity added to the buffer solution was 1-5 μCi.

The conditions of data set [6]: rat, in vivo.
Protocol: as §2

T1 sequence (P02454 152-1207 limits assumed): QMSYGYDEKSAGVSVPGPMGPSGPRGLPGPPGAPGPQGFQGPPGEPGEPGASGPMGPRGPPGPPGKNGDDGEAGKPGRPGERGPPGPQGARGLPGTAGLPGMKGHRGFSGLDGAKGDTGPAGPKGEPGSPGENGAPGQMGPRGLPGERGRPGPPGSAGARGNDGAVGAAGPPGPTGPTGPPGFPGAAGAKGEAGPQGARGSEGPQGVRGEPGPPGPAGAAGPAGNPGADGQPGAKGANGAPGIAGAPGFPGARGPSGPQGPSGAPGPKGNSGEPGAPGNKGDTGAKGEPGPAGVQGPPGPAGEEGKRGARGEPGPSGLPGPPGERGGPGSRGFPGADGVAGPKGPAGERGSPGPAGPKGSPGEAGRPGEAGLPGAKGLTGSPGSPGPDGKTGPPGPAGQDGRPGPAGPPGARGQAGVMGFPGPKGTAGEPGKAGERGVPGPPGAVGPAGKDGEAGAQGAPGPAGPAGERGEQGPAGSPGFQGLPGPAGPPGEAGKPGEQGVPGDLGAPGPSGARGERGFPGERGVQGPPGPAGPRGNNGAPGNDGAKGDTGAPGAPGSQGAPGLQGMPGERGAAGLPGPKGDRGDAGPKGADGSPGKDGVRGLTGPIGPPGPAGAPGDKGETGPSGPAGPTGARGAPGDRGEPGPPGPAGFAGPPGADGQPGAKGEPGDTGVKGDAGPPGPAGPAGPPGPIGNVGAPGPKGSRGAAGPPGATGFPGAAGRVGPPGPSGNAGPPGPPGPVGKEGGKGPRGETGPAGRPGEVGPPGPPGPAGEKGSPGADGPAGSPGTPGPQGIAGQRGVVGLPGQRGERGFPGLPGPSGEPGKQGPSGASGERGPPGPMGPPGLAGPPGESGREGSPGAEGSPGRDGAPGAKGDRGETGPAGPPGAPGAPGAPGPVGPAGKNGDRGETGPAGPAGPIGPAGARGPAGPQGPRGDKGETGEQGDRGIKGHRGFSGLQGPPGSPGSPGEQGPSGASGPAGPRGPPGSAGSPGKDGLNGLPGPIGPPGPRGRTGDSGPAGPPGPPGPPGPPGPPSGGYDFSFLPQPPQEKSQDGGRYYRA
T1 sequence (P02466 86-1125 limits assumed): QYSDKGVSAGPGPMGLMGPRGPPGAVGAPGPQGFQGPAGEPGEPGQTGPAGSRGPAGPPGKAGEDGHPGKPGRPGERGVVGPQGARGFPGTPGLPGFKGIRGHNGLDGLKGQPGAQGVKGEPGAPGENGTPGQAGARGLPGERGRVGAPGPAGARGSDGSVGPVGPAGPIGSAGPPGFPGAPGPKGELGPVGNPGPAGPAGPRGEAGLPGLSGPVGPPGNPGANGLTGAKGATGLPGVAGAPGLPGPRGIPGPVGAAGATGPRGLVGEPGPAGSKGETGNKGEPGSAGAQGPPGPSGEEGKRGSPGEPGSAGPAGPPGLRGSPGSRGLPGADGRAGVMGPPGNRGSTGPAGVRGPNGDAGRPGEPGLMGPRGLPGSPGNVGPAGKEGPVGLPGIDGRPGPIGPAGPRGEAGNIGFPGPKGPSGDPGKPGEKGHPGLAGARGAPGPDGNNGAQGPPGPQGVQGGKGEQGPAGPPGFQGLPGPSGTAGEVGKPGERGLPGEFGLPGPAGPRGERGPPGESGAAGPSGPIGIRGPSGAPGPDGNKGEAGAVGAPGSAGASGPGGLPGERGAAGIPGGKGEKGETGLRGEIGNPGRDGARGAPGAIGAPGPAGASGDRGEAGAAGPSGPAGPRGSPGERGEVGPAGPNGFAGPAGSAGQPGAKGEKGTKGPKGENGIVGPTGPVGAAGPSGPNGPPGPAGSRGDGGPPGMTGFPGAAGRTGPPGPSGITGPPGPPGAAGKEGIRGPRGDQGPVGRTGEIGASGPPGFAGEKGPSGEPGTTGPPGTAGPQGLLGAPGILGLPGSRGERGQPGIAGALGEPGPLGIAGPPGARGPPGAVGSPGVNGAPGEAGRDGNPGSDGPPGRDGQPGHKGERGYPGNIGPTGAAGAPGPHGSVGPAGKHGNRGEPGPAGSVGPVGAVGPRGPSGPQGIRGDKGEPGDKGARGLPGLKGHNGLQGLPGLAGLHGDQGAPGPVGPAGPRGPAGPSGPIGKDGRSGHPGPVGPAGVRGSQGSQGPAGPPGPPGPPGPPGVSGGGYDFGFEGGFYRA

Turning to `CC(C)C[C@H](NC(=O)[C@@H]1CSSC[C@H](NC(=O)[C@H](Cc2c[nH]cn2)NC(=O)[C@H](Cc2c[nH]c3ccccc23)NC(=O)[C@H](CCCCNC(=O)CNC(=S)Nc2ccc(C[C@@H](CN(CCN(CC(=O)O)CC(=O)O)CC(=O)O)N(CC(=O)O)CC(=O)O)cc2)NC(=O)CNC(=S)Nc2ccc(C[C@@H](CN(CCN(CC(=O)O)CC(=O)O)CC(=O)O)N(CC(=O)O)CC(=O)O)cc2)C(=O)N[C@@H]([C@@H](C)O)C(=O)N[C@@H]([C@@H](C)O)C(=O)N[C@@H](CCCCNC(=S)Nc2ccc(C[C@@H](CN(CCN(CC(=O)O)CC(=O)O)CC(=O)O)N(CC(=O)O)CC(=O)O)cc2)C(=O)N[C@@H](Cc2ccccc2)C(=O)N2CCC[C@H]2C(=O)N[C@@H](Cc2c[nH]cn2)C(=O)N[C@@H](Cc2c[nH]cn2)C(=O)N[C@@H](Cc2ccc(O)cc2)C(=O)N1)C(=O)N[C@@H](Cc1ccc(O)cc1)C(=O)N[C@@H](Cc1ccc(-c2ccccc2)cc1)C(N)=O` [Compound ID 800], in the data set with infarcted myocardium, the “MR enhancement of infarcted regions” value is reported as “hyperenhancement of infarcted zones” and the persistence of enhancement result is “at least 1 hour”. Besides, in the data set on myocardium, the “persistence of positive enhancement of the myocardium” value is “at least 1 hour”. Also, the “retention of gadolinium in the heart” value in [1] was at least 30 min.
`CC(C)C[C@H](NC(=O)[C@@H]1CSSC[C@@H](NC(=O)[C@H](Cc2c[nH]cn2)NC(=O)[C@H](Cc2c[nH]c3ccccc23)NC(=O)[C@H](CCCCNC(=O)CNC(=S)Nc2ccc(C[C@@H](CN(CCN(CC(=O)O)CC(=O)O)CC(=O)O)N(CC(=O)O)CC(=O)O)cc2)NC(=O)CNC(=S)Nc2ccc(C[C@@H](CN(CCN(CC(=O)O)CC(=O)O)CC(=O)O)N(CC(=O)O)CC(=O)O)cc2)C(=O)N[C@@H]([C@@H](C)O)C(=O)N[C@@H]([C@@H](C)O)C(=O)N[C@@H](CCCCNC(=S)Nc2ccc(C[C@@H](CN(CCN(CC(=O)O)CC(=O)O)CC(=O)O)N(CC(=O)O)CC(=O)O)cc2)C(=O)N[C@@H](Cc2ccccc2)C(=O)N2CCC[C@H]2C(=O)N[C@@H](Cc2c[nH]cn2)C(=O)N[C@@H](Cc2c[nH]cn2)C(=O)N[C@@H](Cc2ccc(O)cc2)C(=O)N1)C(=O)N[C@@H](Cc1ccc(O)cc1)C(=O)N[C@@H](Cc1ccc(-c2ccccc2)cc1)C(N)=O` [Compound ID 1019]: in data set [2], the “Gadolinium concentration in the blood” value was determined as 13.3±0.3 nmol Gd/g tissue and the “Gadolinium concentration in the heart” value amounted to 14.7±1.0 nmol Gd/g tissue.
As for `O=C([O-])CN(CCN(CC(=O)[O-])CC(=O)O)CCN(CC(=O)[O-])CC(=O)O.[Gd+3]` [GdDTPA, gadolinium diethylenetriaminepentaacetate, reference compound], the “Heart:Blood” value in data set [3] (1 min post injection) and in [3] (5 min post injection) was 0.26 each time. Also, in [4], the “amount remaining in heart at 10 minutes after infusion relative to 0 minutes post infusion” value is 0.5% and 2.2%. Also, on rat type I collagen, the “MR signal of centrifuged rat collagen gel pellet versus supernatant” value was “no increased concentration of GdDTPA in the gel relative to the supernatant”.
For the compound “Glu-DTPA-Gd-G.Q.W.H.C.T.T.R.F.P.H.H.Y.C.L.Y.G-PEG-H ({Glu‑DTPA‑Gd}-GQWHCTTRFPHHYCLYG; disulfide 5-14 (inferred); not fully specified (C-terminus)) [SEQ ID NO. 186]”, in the data set with rat type I collagen, the “MR signal of centrifuged rat collagen gel pellet versus supernatant” value was “the pellet for sample 4 was much brighter than the supernatant”.
Regarding “Q W T C S G D A Y T W H C N Y E (GQWTCSGDAYTWHCNYE; disulfide 5-14 (inferred); not fully specified (C-terminus)) [SEQ ID NO. 144, -G- linker at the N-terminus]”, the “heart uptake relative to GdDTPA” value in [5] is listed as “about 10 times”. Also, the “Heart:Blood” value in [6] is 0.38. For the same compound, in data set [4], the “amount remaining in heart at 10 minutes after infusion relative to 0 minutes post infusion” value is given as 68%.
